Like-named read-outs stand apart in the source and are kept apart here.
Tests used:
hepatitis C replicon = hepatitis C replicon EC50 assay; format: cell-based; conditions: Hepatitis C virus
Text: (§1) NS3-NS4 inhibition activity can be determined using known assay methods. For example, NS3/NS4 complexes may be formed and inhibitory concentrations of test compounds determined as described in U.S. Patent Application Publication Number 2007/0054842 paragraph numbers 1497-1509, which is incorporated herein by reference in its entirety. Similarly, hepatitis C replicon EC50 may be determined using known assay methods such as described in U.S. Patent Application Publication Number 2007/0054842 paragraph numbers 1510-1515, which is incorporated herein by reference in its entirety. Assays may be conducted at ambient temperature (23° C.) in assay buffer containing 50 mM Tris-HCl, pH 7.5, 15% glycerol, 0.6 mM Lauryldimethylamine Oxide (LDAO), 25 μM NS4A peptide, and 10 mM Dithiothreitol (DTT).

NS3/NS4 complexes = NS3/NS4 complexes (Hepatitis C virus genotype 1a, UniProt P27958); experiment: NS3/NS4 inhibition assay (IC50); format: biochemical; conditions: NS3/NS4 activity; 23° C., 25 μM NS4A peptide
Chain of NS3/NS4 complexes (P27958 1027-1657, one chain of several): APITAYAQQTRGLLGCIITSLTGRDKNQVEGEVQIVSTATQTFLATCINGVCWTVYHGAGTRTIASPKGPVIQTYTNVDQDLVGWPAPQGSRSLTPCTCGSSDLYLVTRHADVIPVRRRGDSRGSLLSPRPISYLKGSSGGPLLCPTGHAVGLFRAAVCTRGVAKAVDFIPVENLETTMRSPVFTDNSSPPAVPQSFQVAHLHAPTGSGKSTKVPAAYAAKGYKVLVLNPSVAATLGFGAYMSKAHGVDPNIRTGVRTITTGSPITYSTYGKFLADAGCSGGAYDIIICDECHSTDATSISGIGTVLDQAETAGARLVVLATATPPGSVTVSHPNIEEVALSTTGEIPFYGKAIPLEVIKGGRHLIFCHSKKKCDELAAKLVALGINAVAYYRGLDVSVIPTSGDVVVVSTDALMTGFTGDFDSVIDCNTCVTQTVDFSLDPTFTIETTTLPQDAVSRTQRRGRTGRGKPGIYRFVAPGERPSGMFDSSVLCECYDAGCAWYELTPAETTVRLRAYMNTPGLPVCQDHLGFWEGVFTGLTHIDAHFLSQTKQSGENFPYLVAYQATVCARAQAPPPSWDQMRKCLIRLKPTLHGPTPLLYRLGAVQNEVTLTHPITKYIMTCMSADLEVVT
Text: as §1

[1] = hepatitis C replicon, read-out: EC50

| SMILES | EC50 (hepatitis C replicon; [1]) [nM] | IC50 (NS3/NS4 complexes) [nM] | EC50 (hepatitis C replicon) [nM] |
| --- | --- | --- | --- |
| COc1ccc2c(O[C@@H]3C[C@H]4C(=O)N[C@]5(C(=O)NS(=O)(=O)C6(C)CC6)C[C@H]5/C=C\CCCCC[C@H](Nc5ccc(F)c(OC(F)(F)F)c5)C(=O)N4C3)cc(-c3nc(C(C)C)cs3)nc2c1C (single isomer, unassigned) [Compound 601] | < 10 | < 10 | – |
| COc1ccc2c(O[C@@H]3C[C@H]4C(=O)N[C@]5(C(=O)NS(=O)(=O)C6(C)CC6)C[C@H]5/C=C\CCCCC[C@H](Nc5ccc(OC(F)(F)F)c(F)c5)C(=O)N4C3)cc(-c3nc(C(C)C)cs3)nc2c1C (single isomer, unassigned) [Compound 602] | 10 to 100 | < 10 | – |
| COc1ccc2c(O[C@@H]3C[C@H]4C(=O)N[C@]5(C(=O)NS(=O)(=O)C6(C)CC6)C[C@H]5/C=C\CCCCC[C@H](Nc5ccc(N)cc5)C(=O)N4C3)cc(-c3nc(C(C)C)cs3)nc2c1C [Compound 101] | – | < 10 | 10 to 100 |
| COc1ccc2c(O[C@@H]3C[C@H]4C(=O)N[C@]5(C(=O)NS(=O)(=O)C6(C)CC6)C[C@H]5/C=C\CCCCC[C@H](Nc5cccc(N)c5)C(=O)N4C3)cc(-c3nc(C(C)C)cs3)nc2c1C [Compound 102] | – | < 10 | < 10 |
| COc1ccc2c(O[C@@H]3C[C@H]4C(=O)N[C@]5(C(=O)NS(=O)(=O)C6(C)CC6)C[C@H]5/C=C\CCCCC[C@H](Nc5cccc(C(=O)O)c5)C(=O)N4C3)cc(-c3nc(C(C)C)cs3)nc2c1C [Compound 103] | < 10 | < 10 | – |
| COc1ccc2c(O[C@@H]3C[C@H]4C(=O)N[C@]5(C(=O)NS(=O)(=O)C6(C)CC6)C[C@H]5/C=C\CCCCC[C@H](Nc5cccc(C(=O)N6CCN(C)CC6)c5)C(=O)N4C3)cc(-c3nc(C(C)C)cs3)nc2c1C [Compound 104] | < 10 | < 10 | – |
| COc1ccc2c(O[C@@H]3C[C@H]4C(=O)N[C@]5(C(=O)NS(=O)(=O)C6(C)CC6)C[C@H]5/C=C\CCCCC[C@H](Nc5cccc(C(=O)N6CCOCC6)c5)C(=O)N4C3)cc(-c3nc(C(C)C)cs3)nc2c1C [Compound 105] | < 10 | < 10 | – |
| COc1ccc2c(O[C@@H]3C[C@H]4C(=O)N[C@]5(C(=O)NS(=O)(=O)C6(C)CC6)C[C@H]5/C=C\CCCCC[C@H](Nc5cccc(C(=O)N6CC(C)OC(C)C6)c5)C(=O)N4C3)cc(-c3nc(C(C)C)cs3)nc2c1C (some centres unmarked) [Compound 106] | < 10 | < 10 | – |
| COc1ccc2c(O[C@@H]3C[C@H]4C(=O)N[C@]5(C(=O)NS(=O)(=O)C6(C)CC6)C[C@H]5/C=C\CCCCC[C@H](Nc5cccc(C(=O)N6CCNCC6)c5)C(=O)N4C3)cc(-c3nc(C(C)C)cs3)nc2c1C [Compound 107] | < 10 | < 10 | – |
| CCOC(=O)N1CCN(C(=O)c2cccc(N[C@H]3CCCCC/C=C\[C@@H]4C[C@@]4(C(=O)NS(=O)(=O)C4(C)CC4)NC(=O)[C@@H]4C[C@@H](Oc5cc(-c6nc(C(C)C)cs6)nc6c(C)c(OC)ccc56)CN4C3=O)c2)CC1 [Compound 108] | < 10 | < 10 | – |
| COc1ccc2c(O[C@@H]3C[C@H]4C(=O)N[C@]5(C(=O)NS(=O)(=O)C6(C)CC6)C[C@H]5/C=C\CCCCC[C@H](Nc5cccc(C(=O)N6CCOC(C)C6)c5)C(=O)N4C3)cc(-c3nc(C(C)C)cs3)nc2c1C (some centres unmarked) [Compound 109] | < 10 | < 10 | – |
| COc1ccc2c(O[C@@H]3C[C@H]4C(=O)N[C@]5(C(=O)NS(=O)(=O)C6(C)CC6)C[C@H]5/C=C\CCCCC[C@H](Nc5cccc(C(=O)N6CCN(CCN(C)C)CC6)c5)C(=O)N4C3)cc(-c3nc(C(C)C)cs3)nc2c1C [Compound 111] | < 10 | < 10 | – |
| CCN1CCN(C(=O)c2cccc(N[C@H]3CCCCC/C=C\[C@@H]4C[C@@]4(C(=O)NS(=O)(=O)C4(C)CC4)NC(=O)[C@@H]4C[C@@H](Oc5cc(-c6nc(C(C)C)cs6)nc6c(C)c(OC)ccc56)CN4C3=O)c2)CC1 [Compound 112] | < 10 | < 10 | – |
| CCCN1CCN(C(=O)c2cccc(N[C@H]3CCCCC/C=C\[C@@H]4C[C@@]4(C(=O)NS(=O)(=O)C4(C)CC4)NC(=O)[C@@H]4C[C@@H](Oc5cc(-c6nc(C(C)C)cs6)nc6c(C)c(OC)ccc56)CN4C3=O)c2)CC1 [Compound 113] | < 10 | < 10 | – |
| COc1ccc2c(O[C@@H]3C[C@H]4C(=O)N[C@]5(C(=O)NS(=O)(=O)C6(C)CC6)C[C@H]5/C=C\CCCCC[C@H](Nc5cccc(C(=O)N6CCN(C(c7ccccc7)c7ccccc7)CC6)c5)C(=O)N4C3)cc(-c3nc(C(C)C)cs3)nc2c1C [Compound 114] | < 10 | < 10 | – |
| COc1ccc2c(O[C@@H]3C[C@H]4C(=O)N[C@]5(C(=O)NS(=O)(=O)C6(C)CC6)C[C@H]5/C=C\CCCCC[C@H](Nc5cccc(C(=O)N6CCN(C(=O)c7ccccc7)CC6)c5)C(=O)N4C3)cc(-c3nc(C(C)C)cs3)nc2c1C [Compound 115] | < 10 | < 10 | – |

| SMILES | EC50 (hepatitis C replicon; [1]) [nM] | IC50 (NS3/NS4 complexes) [nM] | EC50 (hepatitis C replicon) [nM] |
| --- | --- | --- | --- |
| COc1ccc2c(O[C@@H]3C[C@H]4C(=O)N[C@]5(C(=O)NS(=O)(=O)C6(C)CC6)C[C@H]5/C=C\CCCCC[C@H](Nc5cccc(C(=O)N6CCN(C(C)c7ccccc7)CC6)c5)C(=O)N4C3)cc(-c3nc(C(C)C)cs3)nc2c1C (some centres unmarked) [Compound 116] | 10 to 100 | < 10 | – |
| COc1ccc2c(O[C@@H]3C[C@H]4C(=O)N[C@]5(C(=O)NS(=O)(=O)C6(C)CC6)C[C@H]5/C=C\CCCCC[C@H](Nc5cccc(C(=O)N6CCN(CCO)CC6)c5)C(=O)N4C3)cc(-c3nc(C(C)C)cs3)nc2c1C [Compound 117] | < 10 | < 10 | – |
| COc1ccc2c(O[C@@H]3C[C@H]4C(=O)N[C@]5(C(=O)NS(=O)(=O)C6(C)CC6)C[C@H]5/C=C\CCCCC[C@H](Nc5cccc(C(=O)N6CCN(c7ccccc7C)CC6)c5)C(=O)N4C3)cc(-c3nc(C(C)C)cs3)nc2c1C [Compound 118] | 10 to 100 | < 10 | – |
| COc1ccc2c(O[C@@H]3C[C@H]4C(=O)N[C@]5(C(=O)NS(=O)(=O)C6(C)CC6)C[C@H]5/C=C\CCCCC[C@H](Nc5cccc(C(=O)N6CCN(C(=O)C7CC7)CC6)c5)C(=O)N4C3)cc(-c3nc(C(C)C)cs3)nc2c1C [Compound 119] | < 10 | < 10 | – |
| COc1ccc2c(O[C@@H]3C[C@H]4C(=O)N[C@]5(C(=O)NS(=O)(=O)C6(C)CC6)C[C@H]5/C=C\CCCCC[C@H](Nc5cccc(C(=O)N6C[C@@H](C)O[C@@H](C)C6)c5)C(=O)N4C3)cc(-c3nc(C(C)C)cs3)nc2c1C [Compound 120] | < 10 | < 10 | – |
| COc1ccc2c(O[C@@H]3C[C@H]4C(=O)N[C@]5(C(=O)NS(=O)(=O)C6(C)CC6)C[C@H]5/C=C\CCCCC[C@H](Nc5cccc(C(=O)N6CCN(C(=O)c7ccco7)CC6)c5)C(=O)N4C3)cc(-c3nc(C(C)C)cs3)nc2c1C [Compound 121] | 10 to 100 | < 10 | – |
| COc1ccc2c(O[C@@H]3C[C@H]4C(=O)N[C@]5(C(=O)NS(=O)(=O)C6(C)CC6)C[C@H]5/C=C\CCCCC[C@H](Nc5cccc(C(=O)N6CCOCC6Cc6ccccc6)c5)C(=O)N4C3)cc(-c3nc(C(C)C)cs3)nc2c1C (some centres unmarked) [Compound 122] | 10 to 100 | < 10 | – |
| COc1ccc2c(O[C@@H]3C[C@H]4C(=O)N[C@]5(C(=O)NS(=O)(=O)C6(C)CC6)C[C@H]5/C=C\CCCCC[C@H](Nc5cccc(C(=O)N6CCN(c7ccc(C)cc7)CC6)c5)C(=O)N4C3)cc(-c3nc(C(C)C)cs3)nc2c1C [Compound 123] | 10 to 100 | < 10 | – |
| COc1ccc2c(O[C@@H]3C[C@H]4C(=O)N[C@]5(C(=O)NS(=O)(=O)C6(C)CC6)C[C@H]5/C=C\CCCCC[C@H](Nc5cccc(C(=O)N6CCN(c7cccc(C(F)(F)F)c7)CC6)c5)C(=O)N4C3)cc(-c3nc(C(C)C)cs3)nc2c1C [Compound 124] | 10 to 100 | < 10 | – |
| COc1ccc2c(O[C@@H]3C[C@H]4C(=O)N[C@]5(C(=O)NS(=O)(=O)C6(C)CC6)C[C@H]5/C=C\CCCCC[C@H](Nc5cccc(C(=O)N6CCN(c7ncccn7)CC6)c5)C(=O)N4C3)cc(-c3nc(C(C)C)cs3)nc2c1C [Compound 125] | < 10 | < 10 | – |
| COc1ccc2c(O[C@@H]3C[C@H]4C(=O)N[C@]5(C(=O)NS(=O)(=O)C6(C)CC6)C[C@H]5/C=C\CCCCC[C@H](Nc5cccc(C(=O)N6CCN(c7ccccn7)CC6)c5)C(=O)N4C3)cc(-c3nc(C(C)C)cs3)nc2c1C [Compound 126] | < 10 | < 10 | – |
| COc1ccc2c(O[C@@H]3C[C@H]4C(=O)N[C@]5(C(=O)NS(=O)(=O)C6(C)CC6)C[C@H]5/C=C\CCCCC[C@H](Nc5cccc(NC(=O)N6CCOCC6)c5)C(=O)N4C3)cc(-c3nc(C(C)C)cs3)nc2c1C [Compound 127] | < 10 | < 10 | – |
| COc1ccc2c(O[C@@H]3C[C@H]4C(=O)N[C@]5(C(=O)NS(=O)(=O)C6(C)CC6)C[C@H]5/C=C\CCCCC[C@H](Nc5cccc(-c6ncco6)c5)C(=O)N4C3)cc(-c3nc(C(C)C)cs3)nc2c1C [Compound 128] | < 10 | < 10 | – |
| COc1ccc2c(O[C@@H]3C[C@H]4C(=O)N[C@]5(C(=O)NS(=O)(=O)C6(C)CC6)C[C@H]5/C=C\CCCCC[C@H](Nc5cccc(C(C)(C)C)c5)C(=O)N4C3)cc(-c3nc(C(C)C)cs3)nc2c1C [Compound 129] | 10 to 100 | < 10 | – |
| CC(C)c1csc(-c2cccc3c2nc(O[C@@H]2C[C@H]4C(=O)N[C@]5(C(=O)NS(=O)(=O)C6(C)CC6)C[C@H]5/C=C\CCCCC[C@H](NC(=O)OC5C[C@@H]6C[C@@H]6C5)C(=O)N4C2)n3C(C)C)n1 (some centres unmarked) [Compound 1411] | 10 to 100 | – | – |
| CC(C)n1c(O[C@@H]2C[C@H]3C(=O)N[C@]4(C(=O)NS(=O)(=O)N(C)C)C[C@H]4/C=C\CCCCC[C@H](NC(=O)OC(C)(C)C)C(=O)N3C2)nc2c(-c3cccnc3)cccc21 [Compound 1738] | < 10 | – | – |

From patent US20110081315A1, “NOVEL MACROCYCLIC INHIBITORS OF HEPATITIS C VIRUS REPLICATION” (INTERMUNE, INC., priority 2009, published 2011)
